# Laboratory results published in BindingDB's records for doi:10.1021/jm00167a014 (Merrell Dow Research Institute, 1990).
# Biological target: Peroxisomal N(1)-acetyl-spermine/spermidine oxidase (Rattus norvegicus)
# Experiment: Tested for in vitro binding affinity against polyamine oxidase after intraperitoneal administration in the rat liver
structure (smiles),measurement,value
C=C=CCNCCCNCCCCCCCCNCCCNCC=C=C,Ki,2500 nM
C=C=CCNCCCNCCCNCC=C=C,Ki,3000 nM
